Measurements reported in patent publication US9681664B2, “Macrocyclic picolinamides as fungicides” (Dow Agrosciences LLC, priority 2012, dated 2017).
Like-named read-outs stand apart in the source and are kept apart here.

Tests used:
Format in all cases: in vivo
[1] = system: Puccinia triticina; Synonym: Puccinia recondite f. sp. tritici; assay: Wheat brown rust (PUCCRT) disease control on wheat seedlings; settings: Puccinia triticina; for pest or weed control at 100 ppm: High volume application; for pest or weed control at 121.5 g/ha: Wheat Brown Rust, low volume application, 121.5 g/H
Procedure, shortened: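 Yuma wheat grown to first fully emerged leaf was inoculated with Puccinia triticina spore suspension either before or after fungicide treatment, held overnight at 22° C. and 100% RH in darkness, then kept at 24° C. Fungicide applied by booth sprayer to run-off (acetone/water, 110 ppm Triton X-100) or as EC by track spray.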

[2] = system: Venturia inaequalis; assay: Apple scab (VENTIN) disease control; settings: 24 h, High volume application, 1 Day Protectant, read-out: VENTIN 1 DP disease control
Procedure: Technical grades of materials were dissolved in acetone, which were then mixed with nine volumes of water containing 110 ppm Triton X-100. The fungicide solutions were applied onto wheat seedlings using an automated booth sprayer to run-off. All sprayed plants were allowed to air dry prior to further handling. All fungicides were evaluated using the aforementioned method for their activity vs. all target diseases. Wheat leaf blotch and brown rust activity were also evaluated using track spray applications, in which case the fungicides were formulated as EC formulations, containing 0.1% Trycol 5941 in the spray solutions. Apple seedlings (variety McIntosh) were grown in soil-less Metro mix, with one plant per pot. Seedlings with two expanding young leaves at the top (older leaves at bottom of the plants were trimmed) were used in the test. Plants were inoculated with a spore suspension of Venturia inaequalis 24 hr after fungicide treatment and kept in a 22° C. dew chamber with 100% RH for 48 hr, and then moved to a greenhouse set at 20° C. for disease to develop. Fungicide formulation, application and disease assessment on the sprayed leaves followed the procedures as described in the Example A.

[3] = system: Uncinula necator; assay: Grape powdery mildew (UNCINE) disease control; settings: Erysiphe necator, 24 h, High volume application, 1 Day Protectant, read-out: UNCINE 1 DP disease control
Procedure: Technical grades of materials were dissolved in acetone, which were then mixed with nine volumes of water containing 110 ppm Triton X-100. The fungicide solutions were applied onto wheat seedlings using an automated booth sprayer to run-off. All sprayed plants were allowed to air dry prior to further handling. All fungicides were evaluated using the aforementioned method for their activity vs. all target diseases. Wheat leaf blotch and brown rust activity were also evaluated using track spray applications, in which case the fungicides were formulated as EC formulations, containing 0.1% Trycol 5941 in the spray solutions. Grape seedlings (variety Carignane) were grown in soil-less Metro mix, with one plant per pot, and used in the test when approximately one month old. Plants were inoculated 24 hr after fungicide treatment by shaking spores from infected leaves over test plants. Plants were maintained in a greenhouse set at 20° C. until disease was fully developed. Fungicide formulation, application and disease assessment on the sprayed leaves followed the procedures as described in the Example A.

[4] = system: Erysiphe cichoracearum; assay: Powdery mildew of cucumber (ERYSCI) disease control; settings: Golovinomyces cichoracearum, 24 h, 1 Day Protectant, high volume, read-out: Disease Control ERYSCI 1 DP
Procedure: Technical grades of materials were dissolved in acetone, which were then mixed with nine volumes of water containing 110 ppm Triton X-100. The fungicide solutions were applied onto wheat seedlings using an automated booth sprayer to run-off. All sprayed plants were allowed to air dry prior to further handling. All fungicides were evaluated using the aforementioned method for their activity vs. all target diseases. Wheat leaf blotch and brown rust activity were also evaluated using track spray applications, in which case the fungicides were formulated as EC formulations, containing 0.1% Trycol 5941 in the spray solutions. Cucumber seedlings (variety Bush Pickle) were grown in soil-less Metro mix, with one plant per pot, and used in the test when 12 to 14 days old. Plants were inoculated with a spore suspension 24 hr following fungicide treatments. After inoculation the plants remained in the greenhouse set at 20° C. until disease was fully expressed. Fungicide formulation, application and disease assessment on the sprayed leaves followed the procedures as described in the Example A.

[5] = system: Blumeria graminis f. sp. tritici; Synonym: Erysiphe graminis f. sp. tritici; assay: Wheat powdery mildew (ERYSGT) disease control; settings: 24 h, 1 Day Protectant, high volume, read-out: Disease Control ERYSGT 1 DP
Procedure: Technical grades of materials were dissolved in acetone, which were then mixed with nine volumes of water containing 110 ppm Triton X-100. The fungicide solutions were applied onto wheat seedlings using an automated booth sprayer to run-off. All sprayed plants were allowed to air dry prior to further handling. All fungicides were evaluated using the aforementioned method for their activity vs. all target diseases. Wheat leaf blotch and brown rust activity were also evaluated using track spray applications, in which case the fungicides were formulated as EC formulations, containing 0.1% Trycol 5941 in the spray solutions. Wheat plants (variety Yuma) were grown from seed in a greenhouse in 50% mineral soil/50% soil-less Metro mix until the first leaf was fully emerged, with 7-10 seedlings per pot. These plants were inoculated by dusting with infected stock plants 24 hr after fungicide treatments. After inoculation the plants were kept in a greenhouse set at 20° C. for disease to develop. Fungicide formulation, application and disease assessment on the sprayed leaves followed the procedures as described in the Example A.

[6] = system: Glomerella lagenarium; Anamorph: Colletotrichum lagenarium; assay: Cucumber anthracnose (COLLLA) disease control; settings: Colletotrichum orbiculare, 24 h, 1 Day Protectant, high volume, read-out: Disease Control COLLLA 1 DP
Procedure: Technical grades of materials were dissolved in acetone, which were then mixed with nine volumes of water containing 110 ppm Triton X-100. The fungicide solutions were applied onto wheat seedlings using an automated booth sprayer to run-off. All sprayed plants were allowed to air dry prior to further handling. All fungicides were evaluated using the aforementioned method for their activity vs. all target diseases. Wheat leaf blotch and brown rust activity were also evaluated using track spray applications, in which case the fungicides were formulated as EC formulations, containing 0.1% Trycol 5941 in the spray solutions. Cucumber seedlings (variety Bush Pickle) were propagated in soil-less Metro mix, with each pot having one plant, and used in the test when 12 to 14 days old. Test plants were inoculated with an aqueous spore suspension of Colletotrichum lagenarium 24 hr after fungicide treatments. After inoculation the plants were kept in a dew room at 22° C. with 100% relative humidity for 48 hr to permit spores to germinate and infect the leaf. The plants were then transferred to a growth room set at 22° C. for disease to develop. Fungicide formulation, application and disease assessment on the sprayed leaves followed the procedures as described in the Example A.

[7] = 24 h, 1 Day Protectant, read-out: PUCCRT 1DP disease control
[8] = 72 h, 3 Day Curative, read-out: PUCCRT 3DC disease control
[9] = 24 h, 1 Day Protectant, read-out: Disease Control PUCCRT 1 DP 121.5 g/H
[10] = 72 h, 3 Day Curative, read-out: Disease Control PUCCRT 3 DC 121.5 g/H

SMILES | pest or weed control at 100 ppm [1, 7] | pest or weed control at 100 ppm [1, 8] | pest or weed control at 100 ppm [2] | pest or weed control at 100 ppm [3] | pest or weed control at 100 ppm [4] | pest or weed control at 100 ppm [5] | pest or weed control at 100 ppm [6] | pest or weed control at 121.5 g/ha [1, 9] | pest or weed control at 121.5 g/ha [1, 10]
COc1ccnc(C(=O)N[C@H]2CCC[C@H](Oc3ccccc3)[C@@H](Oc3ccccc3)[C@H](C)OC2=O)c1OCOC(C)=O [F20] | 80 to 100% | 80 to 100% | 0 to 80% | 0 to 80% | 0 to 80% | 0 to 80% | 80 to 100% |  | 
COc1ccnc(C(=O)N[C@H]2CCC[C@H](OCC(C)C)[C@@H](Oc3ccccc3)[C@H](C)OC2=O)c1OCOC(C)=O [F26] | 80 to 100% | 80 to 100% |  | 0 to 80% | 0 to 80% | 0 to 80% | 80 to 100% |  | 
COc1ccnc(C(=O)N[C@H]2CCC[C@H](Oc3ccccc3)[C@@H](OCC(C)C)[C@H](C)OC2=O)c1OCOC(C)=O [F28] | 80 to 100% | 80 to 100% | 80 to 100% | 0 to 80% | 0 to 80% | 0 to 80% | 80 to 100% |  | 
COc1ccnc(C(=O)N[C@H]2CCC[C@H](OCC(C)C)[C@@H](OCC(C)C)[C@H](C)OC2=O)c1OCOC(C)=O [F29] | 80 to 100% | 80 to 100% | 80 to 100% | 80 to 100% | 80 to 100% | 80 to 100% | 80 to 100% |  | 
COc1ccnc(C(=O)N[C@H]2CCC[C@H](OCc3ccccc3)[C@@H](OCc3ccccc3)[C@H](C)OC2=O)c1OCOC(C)=O [F30] | 80 to 100% | 80 to 100% | 80 to 100% | 0 to 80% | 0 to 80% | < 0% | 80 to 100% |  | 
COc1ccnc(C(=O)N[C@H]2CCC[C@H](OCc3ccccc3)[C@@H](Oc3ccccc3)[C@H](C)OC2=O)c1OCOC(C)=O [F31] | 80 to 100% | 80 to 100% |  | 0 to 80% | < 0% | 0 to 80% | 80 to 100% |  | 
COc1ccnc(C(=O)N[C@H]2CCC[C@H](OCC(C)C)[C@@H](Oc3ccccc3)[C@H](C)OC2=O)c1OCOC(=O)C(C)C [F34] | 80 to 100% | 80 to 100% |  | 0 to 80% | 0 to 80% | 0 to 80% | 80 to 100% |  | 
COc1ccnc(C(=O)N[C@H]2CCC[C@H](Oc3ccccc3)[C@@H](OCC(C)C)[C@H](C)OC2=O)c1OCOC(=O)C(C)C [F35] | 80 to 100% | 80 to 100% |  | 80 to 100% | 80 to 100% | 0 to 80% | 80 to 100% |  | 
COc1ccnc(C(=O)N[C@H]2CCC[C@H](Oc3ccccc3)[C@@H](Oc3ccccc3)[C@H](C)OC2=O)c1OCOC(=O)C(C)C [F36] | 80 to 100% | 80 to 100% |  | 0 to 80% | 0 to 80% | < 0% | 80 to 100% |  | 
COc1ccnc(C(=O)N[C@H]2CCC[C@H](OCC(C)C)[C@@H](OCC(C)C)[C@H](C)OC2=O)c1OCOC(=O)C(C)C [F37] | 80 to 100% | 80 to 100% |  | 80 to 100% | 80 to 100% | 0 to 80% | 80 to 100% |  | 
COc1ccnc(C(=O)N[C@H]2CCC[C@H](OCC(C)C)[C@@H](OC3CCCC3)[C@H](C)OC2=O)c1OCOC(=O)C(C)C [F38] | 80 to 100% | 80 to 100% |  | 80 to 100% | 80 to 100% | 0 to 80% | 80 to 100% |  | 
COc1ccnc(C(=O)N[C@H]2CCC[C@H](OCC(C)C)[C@@H](OC)[C@H](C)OC2=O)c1OCOC(C)=O [F251] |  |  | < 0% | 0 to 80% | < 0% |  | 80 to 100% | 80 to 100% | 80 to 100%
COc1ccnc(C(=O)N[C@H]2CCC[C@H](Oc3ccccc3)[C@@H](OC)[C@H](C)OC2=O)c1OCOC(C)=O [F252] |  |  | 0 to 80% | 0 to 80% | < 0% |  | 80 to 100% | 80 to 100% | 80 to 100%
C=C(C)CO[C@H]1CCC[C@H](NC(=O)c2nccc(OC)c2OCOC(=O)C(C)C)C(=O)O[C@@H](C)[C@@H]1OC [F253] |  |  | 80 to 100% | 0 to 80% | < 0% |  | 80 to 100% | 80 to 100% | 80 to 100%
COc1ccnc(C(=O)N[C@H]2CCC[C@H](OCC(C)C)[C@@H](OC)[C@H](C)OC2=O)c1OCOC(=O)C(C)C [F254] |  |  | 80 to 100% | 0 to 80% | < 0% |  | 80 to 100% | 80 to 100% | 80 to 100%
COc1ccnc(C(=O)N[C@H]2CCC[C@H](Oc3ccccc3)[C@@H](OC)[C@H](C)OC2=O)c1OCOC(=O)C(C)C [F255] |  |  | 80 to 100% | 80 to 100% | < 0% |  | 80 to 100% | 80 to 100% | 80 to 100%
